Assay results published in US8852634B2, “Dosage formulation” (Hoffmann-La Roche Inc., priority 2005, dated 2014).
Read-outs that look alike come from different tables or passages of the source.

Assay: Solubility of the crystalline compounds in aqueous media
Assay type: physicochemical

SMILES: Cc1ccccc1-c1cc(N2CCOCC2)ncc1N(C)C(=O)C(C)(C)c1cc(C(F)(F)F)cc(C(F)(F)F)c1 [2-(3,5-bis-trifluoromethyl-phenyl)-N-methyl-N-(6-morpholin-4-yl-4-o-tolyl-pyridin-3-yl)-isobutyramide]
- solubility (aqueous buffer solutions of pH 3.0-7.0, read-out: solubility in aqueous buffer solutions): < 0.1 µg/mL
- solubility (water, 'above noted insolubilities', read-out: solubility in water): < 0.1 µg/mL
